Measured values: patent US20050079232A1, “Composition for promotion of bone growth and maintenance of bone health” (priority 2001, published 2005)

Key:
BMP-2 promoter = test: BMP-2 luciferase assay (BMP-2 gene reporter assay, bone formation); assay type: cell-based; conditions: 10^−6M; result in words
Protocol: BMP-2 luciferase assay—The activity of the extracts was determined using 2T3 cells containing the BMP-2 promoter operatively linked to the luciferase gene. An increase in luciferase activity in cell lysates reflects an increase in BMP-2 promoter activity. The extracts were assayed at an initial dilution of 100 μg/ml with ½ dilutions down to 0.2 μg/ml. BMP-2 promoter activity was measured by measuring the luciferase activity in cell extracts.

BMP-2 = test: Endogenous BMP-2 mRNA expression in hPOB-tert cells by RT-PCR; assay type: cell-based, human; conditions: 0.5 μg/ml, positive control
Protocol: The plants found positive for BMP-2 induction in example 1 were further tested in a human periosteal/preosteoblast cell line, hPOB-tert for their ability to induce the endogenous expression of BMP-2. This test in osteoblast cells confirmed the results shown in example 1.
[…] Total RNA was extracted with TRIzol Reagent (Gibco). 10 μg RNA were reverse transcribed using the 1st Strand cDNA Synthesis Kit (Boehringer). BMP-2 cDNA sequences were amplified for 35 cycles at an annealing temperature of 55° C. using specific oligonucleotide primers (5′: […]; 3′: […]). PCR products were separated by agarose gel electrophoresis and detected by ethidium bromide staining. Quantification was performed using NIH Image Software and normalizing results with Actin as house-keeping gene.

Row | stimulation of BMP-2 (promoter activity) (BMP-2 promoter) | SMILES | induction of BMP-2 (BMP-2) [fold]
1 | stimulated BMP-2 | O=c1c(-c2ccc(O)cc2)coc2cc(O)cc(O)c12 [genistein] | –
2 | stimulated BMP-2 | O=c1c(-c2ccc(O)cc2)coc2cc(O)ccc12 [daidzein] | –
3 | – | CC[C@H](C)C(=O)O[C@H]1C[C@@H](C)C=C2C=C[C@H](C)[C@H](CC[C@@H]3C[C@@H](O)CC(=O)O3)[C@H]21 [lovastatin] | 2.5
